Results published in patent US6528501B1, “22s-hydroxycholesta-8, 14-diene derivatives with meiosis regulating activity” (Akzo Nobel N.V., priority 1998, dated 2003).

What was measured:
meiosis = details: disclosed in WO 98/28323; cited from earlier work
[1] = system: cultured cumulus enclosed and naked mouse oocytes; details: cited from earlier work
[2] = system: cumulus enclosed oocytes (CEO); assay: Oocyte assay, cumulus enclosed oocytes (CEO): overcoming hypoxanthine maintained meiotic arrest; assay type: cell-based, mice (B6D2-F1, strain C57BL×DBA); details: 22 hours culture, hypoxanthine 4 mM, control value in parentheses
Description: (§1) The meiosis activating activity of the […]-hydroxycholesta-8,14-diene derivatives of the invention is measured in an in vitro oocyte assay as the ability to overcome the hypoxanthine maintained meiotic arrest in denuded oocytes (DO) or cumulus enclosed oocytes (CEO). Oocytes arrested in meiosis contain diffused chromosomes which are surrounded by an intact nuclear envelope known as the germinal vesicle (GV). Upon reinitiation of meiosis by the […] gonadotropin surge, the chromosomes recondense and the GV breaks down (GVBD). In vivo, the oocyte is exposed to hypoxanthine (HX), which maintains the oocyte arrested in the meiotic prophase. This meiotic arrest can be mimicked in vitro by addition of hypoxanthine to the culture medium. The agonistic activity of the meiosis activating substances is measured as the ability to overcome the hypoxanthine maintained meiotic arrest in denuded oocytes (DO) or cumulus enclosed oocytes (CEO), i.e. as the ability to induce meiotic resumption in vitro. Ovaries are obtained from immature female mice (B6D2-F1, strain C57BL×DBA). At the age of 19, 20 or 21 days the mice are injected subcutaneously with a single dose of 20 IU follicle stimulating hormone (Humegon, Organon, The Netherlands) in saline. Forty-eight hours after follicle stimulating hormone injection mice are killed by cervical dislocation. The ovaries are removed, freed of extraneous tissue and placed in a multidish containing 0.5 ml preparation medium at 37° C. […] At t=0 the number of oocytes with intact germinal vesicles (GV) or germinal vesicle break-down (GVBD) is counted under an inverted microscope with differential interference contrast equipment. […] At the end of the culture period the number of oocytes with GV or GVBD per group is counted. For statistical analysis the percentage germinal vesicle breakdown is calculated for each group in one block. These percentages are subjected to arcsin transformation, and differences between control and test compounds are analyzed by an ANOVA test for a randomized block design.

denuded oocytes (DO) = assay: Oocyte assay, denuded oocytes (DO): overcoming hypoxanthine maintained meiotic arrest; assay type: cell-based, mice (B6D2-F1, strain C57BL×DBA); details: 22 hours culture, hypoxanthine 4 mM, control value in parentheses
Description: as §1

Row | SMILES | ability to activate the resumption of meiosis [1] | % GVBD CEO assay exp. ([2]; 5 μM) | % GVBD DO assay exp. (denuded oocytes (DO); 5 μM) | melting point [°C] | further results
1 | CC(C)CC[C@@H](O)[C@@H](C)[C@H]1CC[C@H]2[C@@H]3CC=C4C[C@@H](O)CC[C@]4(C)[C@H]3CC[C@]12C [22R-hydroxycholesterol] |  |  |  |  | agonist/antagonist of meiosis activating substance (meiosis): antagonist
2 | CC(C)=CCC[C@@H](C)[C@H]1CC[C@H]2C3=C(CC[C@]12C)[C@@]1(C)CC[C@H](O)C(C)(C)[C@@H]1CC3 [(3β,5α,20R)-4,4-dimethylcholesta-8,24-dien-3-ol] | able to activate the resumption of meiosis |  |  |  | 
3 | CC(C)CC[C@H](O)[C@@H](C)[C@H]1CC=C2C3=C(CC[C@@]21C)[C@@]1(C)CC[C@H](O)C(C)(C)[C@@H]1CC3 [Example 1, (3β,5α,20S ,22S)-4,4-Dimethylcholesta-8,14-diene-3,22-diol] |  | 6(3) % | 85(0) % | 142 to 143 | 
4 | CC(C)=CC[C@H](O)[C@@H](C)[C@H]1CC=C2C3=C(CC[C@@]21C)[C@@]1(C)CC[C@H](O)C(C)(C)[C@@H]1CC3 [Example 2, (3β,5α,20S,22S )-4,4-Dimethylcholesta-8,14,24-triene-3,22-diol] |  | 73(2) % | 97(2) % | 106 to 108 | 
5 | CC(C)=CCC[C@@H](C)[C@H]1CC=C2C3=C(CC[C@@]21C)[C@@]1(C)CC[C@H](O)C(C)(C)[C@@H]1CC3 [FF-Mas, (3β,5α,20R)-4,4-dimethylcholesta-8,14,24-trien-3-ol] | able to activate the resumption of meiosis |  |  |  | % GVBD CEO assay exp. ([2]; 10 μM): 0(0) %; % GVBD DO assay exp. (denuded oocytes (DO); 10 μM): 84(7) %
